What was measured:
[1] = tested on: A549; experiment: Antitumor activity against human A549 cells after 24 hrs by MTT assay; type: functional; conditions: A549, 24 h, read-out: ED50 (the source's name)
[2] = Inhibition of NADH-ubiquinone oxidoreductase assessed by NADH oxidase activity in beef heart submitochondrial particles; design: species or system Bos taurus
[3] = tested on: MCF7; experiment: Antitumor activity against human MCF7 cells after 24 hrs by MTT assay; type: functional; conditions: MCF7, 24 h, read-out: ED50 (the source's name)
[4] = tested on: HT-29; experiment: Antitumor activity against human HT29 cells after 24 hrs by MTT assay; type: functional; conditions: HT-29, 24 h, read-out: ED50 (the source's name)
[5] = Antitumor activity against human MES-SA cells after 24 hrs by MTT assay; type: functional; conditions: read-out: ED50 (the source's name)
[6] = Antitumor activity against doxorubucin-resistant human MES-SA/Dx5 cells by MTT assay after 24 hrs; type: functional; conditions: MES-SA/Dx5, 24 h, read-out: ED50 (the source's name)
[7] = tested on: HepG2; experiment: Antitumor activity against human HepG2 cells after 24 hrs by MTT assay; type: functional; conditions: HepG2, 24 h, read-out: ED50 (the source's name)

| EC50 [1] [µM] | IC50 [2] [µM] | EC50 [3] [µM] | EC50 [4] [µM] | EC50 [7] [µM] | Structure (SMILES) | EC50 [5] [µM] | EC50 [6] [µM] |
| --- | --- | --- | --- | --- | --- | --- | --- |
| 192 | 0.0034 | 50 | 154 | 18 | CCCCCCCCCC[C@H](OC(C)=O)[C@H]1CC[C@H]([C@H]2CC[C@H]([C@H](O)CCCCC(=O)CCCCCCCC3=C[C@H](C)OC3=O)O2)O1 | 43 | 83 |
| 101 | 0.0028 | 66 | 169 | 51 | CCCCCCCCCC[C@H](O)[C@H]1CC[C@H]([C@H]2CC[C@H]([C@@H](CCCCC(=O)CCCCCCCC3=C[C@H](C)OC3=O)OC(C)=O)O2)O1 | 76 | 97 |
| 60 | 0.0004 | 29 | 195 | 9 | CCCCCCCCCC[C@H](OC(C)=O)[C@H]1CC[C@H]([C@H]2CC[C@H]([C@@H](CCCCC(=O)CCCCCCCC3=C[C@H](C)OC3=O)OC(C)=O)O2)O1 | 28 | 56 |
| 152 | – | 8 | 274 | 102 | COc1cccc2c1C(=O)c1c(O)c3c(c(O)c1C2=O)C[C@@](O)(C(=O)CO)C[C@@H]3O[C@H]1C[C@H](N)[C@H](O)[C@H](C)O1 [DOXORUBICIN] | 173 | > 500 |
| 148 | 0.0012 | 39 | 71 | 11 | CCCCCCCCCC[C@H](O)[C@H]1CC[C@H]([C@H]2CC[C@H]([C@H](O)CCCCC(=O)CCCCCCCC3=C[C@H](C)OC3=O)O2)O1 [GUANACONE] | 22 | 52 |

| Structure (SMILES) | EC50 [1] [µM] | IC50 [2] [µM] | EC50 [3] [µM] | EC50 [4] [µM] | EC50 [7] [µM] | EC50 [5] [µM] | EC50 [6] [µM] |
| --- | --- | --- | --- | --- | --- | --- | --- |
| C=C(C)[C@H]1Cc2c(ccc3c2O[C@@H]2COc4cc(OC)c(OC)cc4[C@@H]2C3=O)O1 [ROTENONE] | 26 | 0.0051 | 161 | 202 | 15 | 147 | 214 |
